Laboratory results reported in patent US20060216333A1, “Methods related to the treatment of mucosal associated conditions” (priority 2003, published 2006).
Marks after values point to notes of the source that are not given here.

Key:
Format in all cases: in vivo, rat
rats [1] = assay: Histologic examination of vaginas and vulvas, Example 9; conditions: removed after 2 hours, necropsied 22 hours after removal; for Vagina Erosion or ulceration / Vulva Erosion or ulceration: incidence; for Vagina Inflammation / Vulva Inflammation: mean score, 0=none to 4=severe
Method: Devices were prepared from either cotton as described in Example 1 or from polyurethane foam (Medisorb 100—1.25:Polysorbate 60 at 1% concentration at 1.25/1 ratio, from Lendell Manufacturing, Inc, St. Charles, Mich.). The devices were saturated with one of the following solutions: 0.1% ERM 3 in 50/50 ISA/IPM; 1.0% IRM 3 in 50/50 ISA/IPM; 3.0% IRM 3 in 50/50 ISA/IPM or with 50/50 ISA/IPM (vehicle). Rats were dosed intravaginally; the devices were removed after 2 hours. […] Cytokines were assayed at 4 hours post dosing. The results are shown in the table below where each value is the mean of the values for 3 rats.
(§1) Groups of 3 rats were treated as described in Example 5 and necropsied 22 hours after the devices were removed. Vaginas and vulvas were collected, fixed and processed routinely for histologic examination. Inflammation was scored as follows: 0=none, 1=minimal, 2=mild, 3=moderate, 4=severe. The values in the tables are the mean of the scores for 3 rats.

rats [2] = assay: Histologic examination of vaginas and vulvas, Example 10; conditions: necropsied 24 hours after treatment initiation
Method: as §1
Cotton devices were prepared as described in Example 1. The devices were saturated with a solution containing 5% by weight of IRM 3 in 50/50 w/w isostearic acid/isopropyl myristate. One group of 5 rats was dosed intravaginally with the devices. The devices were removed after 2 hours. A second group of 5 rats was dosed intravaginally with 5% IRM 3 cream. The cream was washed out after 2 hours. A third group of 5 rats was dosed intravaginally with 5% IRM 3 cream but the cream was not removed. The rats were necropsied 24 hours after treatment initiation. Vaginas and vulvas were collected, fixed and processed routinely for histologic examination. The scoring system described in Example 9 was used.

MCP-1 = assay: Serum and vaginal tissue MCP-1 after intravaginal dosing of rats (ELISA); conditions: for MCP-1 Tissue: vaginal tissue, per 200 mg
Method: (§2) In the examples below the serum and intravaginal cytokine data were obtained using the following general test method.
(§3) Rats were acclimated to collars (Lomir Biomedical, Malone, N.Y.) around the neck on two consecutive days prior to actual dosing. Rats were collared to prevent removal of the device and ingestion of the drug. Animals were then dosed intravaginally with a removable device or with […] of cream. Single dosed rats received one intravaginal dose with samples collected at various times following dosing. Blood was collected by cardiac puncture. Blood was allowed to clot briefly at room temperature and serum was separated from the clot via centrifugation. The serum was stored at −20° C. until it was analyzed for cytokine concentrations.
(§4) Following blood collection, the rats were euthanized and their vaginal tract, including the cervix, was then removed and the tissue was weighed, placed in a sealed 1.8 mL cryovial and flash frozen in liquid nitrogen. The frozen vaginal tissue sample was then suspended in 1.0 mL of RPMI medium (Celox, St. Paul, Minn.) containing 10% fetal bovine serum (Atlas, Fort Collins, Colo.), 2 mM L-glutamine, penicillin/streptomycin and 2-mercaptoethanol (RPMI complete) combined with a protease inhibitor cocktail set III (Calbiochem, San Diego, Calif.). The tissue was homogenized using a Tissue Tearor (Biospec Products, Bartlesville, Okla.) for approximately one minute. The tissue suspension was then centrifuged at 2000 rpm for 10 minutes under refrigeration to pellet the debris, and the supernatant collected and stored at −20° C. until analyzed for cytokine concentrations.
(§5) ELISA kits for rat TNF were purchased from BD PharMingen (San Diego, Calif.) and the rat MCP-1 ELISA kits were purchased from BioSource Intl. (Camarillo, Calif.).
(§6) Both kits were performed according to manufacturer's specifications. Results for both TNF and MCP-1 are expressed in pg/mL and are normalized per 200 mg of tissue. […] “Post dosing” means after treatment initiation. For example, if a device was inserted a time 0 hours and removed at 2 hours and cytokines were assayed at 4 hours, then the cytokines were assayed at 4 hours post dosing.

TNF = assay: Serum and vaginal tissue TNF after intravaginal dosing of rats (ELISA); conditions: for TNF Tissue: vaginal tissue, per 200 mg
Method: as §2, §3, §4, §5, §6

[3] = incidence, cotton device 5% removed after 2 hours
[4] = 2 hr post dose, 5% in 50/50 ISA/IPM, cotton pellet device removed after 2 hours, Example 7
[5] = 4 hours post dosing, 0.1% in 50/50 ISA/IPM, cotton device removed after 2 hours, Example 5
[6] = 4 hours post dosing, 0.1% in 50/50 ISA/IPM, foam device removed after 2 hours, Example 5
[7] = 4 hours post dosing, 1.0% in 50/50 ISA/IPM, cotton device removed after 2 hours, Example 5
[8] = 4 hours post dosing, 1.0% in 50/50 ISA/IPM, foam device removed after 2 hours, Example 5
[9] = 4 hours post dosing, 3.0% in 50/50 ISA/IPM, cotton device removed after 2 hours, Example 5
[10] = 4 hours post dosing, 3.0% in 50/50 ISA/IPM, foam device removed after 2 hours, Example 5
[11] = 4 hr post dose, 5% in 50/50 ISA/IPM, cotton pellet device removed after 2 hours, Example 7
[12] = 6 hr post dose, 5% in 50/50 ISA/IPM, cotton pellet device removed after 2 hours, Example 7

## CC(C)Cn1cnc2c(N)nc3cccnc3c21 [IRM 3, 1-(2-methylpropyl)-1H-imidazo[4,5-c][1,5]naphthyridin-4-amine]
Rats [1]; cotton device 0.1%
  Vagina Erosion or ulceration: 0/3
  Vulva Erosion or ulceration: 0/3
  Vulva Inflammation: 0.33
Rats [1]; cotton device 1.0%
  Vagina Erosion or ulceration: 0/3
  Vulva Inflammation: 0.5
Rats [1]; cotton device 1.0%, tissue from 1 rat not assessable
  Vulva Erosion or ulceration: 0/2*
Rats [1]; cotton device 3.0%
  Vagina Erosion or ulceration: 0/3
  Vulva Erosion or ulceration: 0/3
  Vulva Inflammation: 2.17
Rats [1]; foam device 0.1%
  Vagina Erosion or ulceration: 0/3
  Vulva Erosion or ulceration: 0/3
  Vulva Inflammation: 0.33
Rats [1]; foam device 1.0%
  Vagina Erosion or ulceration: 0/3
  Vulva Erosion or ulceration: 0/3
  Vulva Inflammation: 0.33
Rats [1]; foam device 3.0%
  Vagina Erosion or ulceration: 0/3
  Vulva Inflammation: 1.75
Rats [1]; foam device 3.0%, tissue from 1 rat not assessable
  Vulva Erosion or ulceration: 0/2*
Rats [1]; cotton device 0.1% in 50/50 ISA/IPM
  Vagina Inflammation: 1.0
Rats [1]; cotton device 1.0% in 50/50 ISA/IPM
  Vagina Inflammation: 2.5
Rats [1]; cotton device 3.0% in 50/50 ISA/IPM
  Vagina Inflammation: 3.17
Rats [1]; foam device 0.1% in 50/50 ISA/IPM
  Vagina Inflammation: 2.17
Rats [1]; foam device 1.0% in 50/50 ISA/IPM
  Vagina Inflammation: 2.83
Rats [1]; foam device 3.0% in 50/50 ISA/IPM
  Vagina Inflammation: 2.5
Rats [2]; [3]
  Vagina - erosion: 0/5
  Vagina - ulceration: 0/5
  Vulva - preulcer: 3/5
  Vulva - ulceration: 0/5
Rats [2]; mean score, 0=none to 4=severe, cotton device 5% in 50/50 ISA/IPM removed after 2 hours
  Vagina - Inflammation: 3.1
Rats [2]; mean score, 0=none to 4=severe, cotton device 5% removed after 2 hours
  Vulva - Inflammation: 1.7
MCP-1; [4]
  MCP-1 Serum: 95 pg/mL
  MCP-1 Tissue: 815 pg/mL
MCP-1; [5]
  MCP-1 Serum: 72 pg/mL
  MCP-1 Tissue: 179 pg/mL
MCP-1; [6]
  MCP-1 Serum: 77 pg/mL
  MCP-1 Tissue: 143 pg/mL
MCP-1; [7]
  MCP-1 Serum: 111 pg/mL
  MCP-1 Tissue: 468 pg/mL
MCP-1; [8]
  MCP-1 Serum: 86 pg/mL
  MCP-1 Tissue: 279 pg/mL
MCP-1; [9]
  MCP-1 Serum: 79 pg/mL
  MCP-1 Tissue: 402 pg/mL
MCP-1; [10]
  MCP-1 Serum: 105 pg/mL
  MCP-1 Tissue: 351 pg/mL
MCP-1; [11]
  MCP-1 Serum: 114 pg/mL
  MCP-1 Tissue: 1260 pg/mL
MCP-1; [12]
  MCP-1 Serum: 171 pg/mL
  MCP-1 Tissue: 840 pg/mL
TNF; [4]
  TNF Serum: 4 pg/mL
  TNF Tissue: 809 pg/mL
TNF; [5]
  TNF Serum: 0 pg/mL
  TNF Tissue: 108 pg/mL
TNF; [6]
  TNF Serum: 0 pg/mL
  TNF Tissue: 85 pg/mL
TNF; [7]
  TNF Serum: 0 pg/mL
  TNF Tissue: 173 pg/mL
TNF; [8]
  TNF Serum: 0 pg/mL
  TNF Tissue: 148 pg/mL
TNF; [9]
  TNF Serum: 0 pg/mL
  TNF Tissue: 175 pg/mL
TNF; [10]
  TNF Serum: 0 pg/mL
  TNF Tissue: 302 pg/mL
TNF; [11]
  TNF Serum: 3 pg/mL
  TNF Tissue: 608 pg/mL
TNF; [12]
  TNF Serum: 5 pg/mL
  TNF Tissue: 114 pg/mL
